Data on two compounds can be found in ChEMBL document CHEMBL5226286, “The application of isatin-based multicomponent-reactions in the quest for new bioactive and druglike molecules” (Eur J Med Chem, 2021).

≈ marks a conversion by molar mass, not a printed value. Some results are limits rather than exact numbers.

In general, MIC refers to the least concentration at which growth counts as inhibited. Read a low MIC as a more susceptible organism. The IC50 is the point on the concentration scale where inhibition reaches its midpoint. Read a high IC50 as weaker potency in that assay.

The test system of assay [1] is Bacillus subtilis. As to the kind of experiment: Antibacterial activity against Bacillus subtilis ATCC 465. It is filed as functional.
A further assay deals with Bacillus pumilus. In words: Antibacterial activity against Bacillus pumilus PTCC 1114. It is filed as functional.
The subject of another assay is Micrococcus luteus. As to the kind of experiment: Antibacterial activity against Micrococcus luteus PTCC 1110. Format: functional.
The next assay deals with Streptococcus mutans. As to the kind of experiment: Antibacterial activity against Streptococcus mutans PTCC 1601. It is filed as functional.
Assay [2] relates to Staphylococcus epidermidis. In words: Antibacterial activity against Staphylococcus epidermidis ATCC 12228. It is filed as functional.
The subject of assay [3] is Staphylococcus aureus. In words: Antibacterial activity against Staphylococcus aureus ATCC 25923. It is filed as functional.
The next assay deals with Enterococcus faecalis. In words: Antibacterial activity against Enterococcus faecalis ATCC 29737. Format: functional.
Assay [4] concerns Bacillus subtilis. As to the kind of experiment: Antibacterial activity against Bacillus subtilis MTCC 441. Format: functional.
Assay [5] deals with Staphylococcus aureus. In words: Antibacterial activity against Staphylococcus aureus MTCC 96. It is filed as functional.
The next assay has as its system Escherichia coli. As to the kind of experiment: Antibacterial activity against Escherichia coli MTCC 1689. It is filed as functional.
The test system of the next assay is Proteus mirabilis. As to the kind of experiment: Antibacterial activity against Proteus mirabilis. It is filed as functional.
Another assay deals with Klebsiella pneumoniae. As to the kind of experiment: Antibacterial activity against Klebsiella pneumoniae ATCC 29655. It is filed as functional.
A further assay relates to Leishmania major. As to the kind of experiment: Antileishmanial activity against Leishmania major promastigotes incubated for 72 hrs by micrscopic analysis. Format: functional.
Another assay has as its system HeLa. In words: Anticancer activity against human HeLa cells measured after 48 hrs by MTT assay. It is filed as functional, cell-based. (Formazan colour is commonly taken as a measure of viable cells.)
Another assay has as its system NIH3T3. In words: Anticancer activity against mouse 3T3 cells measured after 48 hrs by MTT assay. It is filed as functional, cell-based. The conditions noted are these: NIH3T3, 48 h.

As for `CN(C)[C@@H]1C(O)=C(C(N)=O)C(=O)[C@@]2(O)C(O)=C3C(=O)c4c(O)cccc4[C@@](C)(O)[C@H]3C[C@@H]12` [TETRACYCLINE], the MIC was 4 µg/mL (≈ 9 µM) in the assay with Bacillus subtilis [1]; 8 µg/mL (≈ 18 µM) in the assay with Bacillus pumilus; 4 µg/mL (≈ 9 µM) in the assay with Micrococcus luteus; 2 µg/mL (≈ 4.5 µM) in the assay on Streptococcus mutans; under 2 µg/mL in assay [2]; 4 µg/mL (≈ 9 µM) against Staphylococcus aureus [3]. In addition, the minimal inhibitory concentration (MIC) against Enterococcus faecalis came to 8 µg/mL (≈ 18 µM); with Bacillus subtilis [4], 10 µg/mL (≈ 22.5 µM); in the assay on Staphylococcus aureus [5], 5 µg/mL (≈ 11.3 µM); with Escherichia coli, 10 µg/mL (≈ 22.5 µM); in the assay with Proteus mirabilis it was 15 µg/mL (≈ 33.8 µM); against Klebsiella pneumoniae it was 16 µg/mL (≈ 36 µM).
`O=C1/C(=C/c2cccc([N+](=O)[O-])c2)CCC[C@]12[C@H]1CCCN1[C@]1(C(=O)Nc3ccccc31)[C@H]2c1cccc([N+](=O)[O-])c1`: the MIC in the assay with Leishmania major came out at 6.8 µM (≈ 3.84 µg/mL). Moreover, the figures for the half-inhibitory concentration (IC50) with HeLa and in the assay with NIH3T3 were 4.8 µM and 19.1 µM, respectively.
